Data as given in publication PMC1247661 (Environmental Health Perspectives, 2004).

Key:
[1] = 13 weeks; mean ±SD of 10 rats; TCDD 100, PeCDF 200, PCB126 1,000 ng/kg/day, PCB153 1,000 μg/kg/day; ref NTP 2004a, 2004b, 2004c; cited from earlier work
[2] = tested on: liver; conditions: 13 weeks, ref NTP 2004a, 2004b, 2004c, cited from earlier work; for Liver hypertrophy, incidence (number of rats of 10): TCDD 100, PeCDF 200, PCB126 1,000 ng/kg/day, PCB153 1,000 μg/kg/day; for Liver hypertrophy, severity in words: highest dose of each compound; for Liver hypertrophy, mean severity score: 1, minimal, 2, mild, 3, moderate, 4, marked
[3] = tested on: hepatic gene expression; assay: Real-time RT-PCR of hepatic mRNA after 13-week exposure: TCDD 100, PeCDF 200, PCB126 1,000 ng/kg/day, PCB153 1,000 μg/kg/day; format: in vivo, female Harlan Sprague-Dawley rats; conditions: liver, 13 weeks; average (± 1 SD) of three RNA pools; normalized to 18S RNA
Procedure: Tissues for this study were provided by the NTP ([NTP 2004a], [2004b], [2004c]) as part of a 2-year bioassay for relative carcinogenic potencies of dioxin-like chemicals. […] Toxicologic dose equivalence was based on the current World Health Organization TEF recommendations ([Van den Berg et al. 1998]). Subgroups of rats were sacrificed at 14, 31, and 53 weeks (corresponding to 13, 30, or 52 weeks of exposure), and target organs were removed, flash frozen in liquid nitrogen, and stored at −70°C for mechanistic studies.
Frozen hepatic tissue was disrupted by homogenization with a rotor stator homogenizer, and total RNA was isolated with Qiagen RNeasy columns Qiagen Inc., Valencia, CA). There were a total of six rats in each exposure group. Three pools of RNA were created from each exposure group (n = 2 rats per pool), similar to the experimental design of [Yechoor et al. (2002)]. Pooled total RNA was further purified using the Qiagen poly(A) RNA isolation kit. RNA integrity was assessed by the Agilent Bioanalyzer 2100 (Agilent Technologies, Palo Alto, CA). […] Poly(A) RNA was transformed into labeled cRNA by the Roswell Park Cancer Institute Microarray and Genomics Core Facility (Buffalo, NY). cRNA from each pool was fragmented and its quality evaluated with Affymetrix GeneChip Test3 arrays (Santa Clara, CA) by comparing 3′:5′ signal ratios of housekeeping genes. High-quality cRNA (3′:5′ signal ratio near 1) was subsequently hybridized to Affymetrix RGU34A GeneChips, and chips were scanned with the Affymetrix 428 scanner.
Reverse transcriptase reactions (80 μL) contained 20 μg total RNA, 0.5 mM dNTP mix, and 15 ng/μL random primers, 1 × first-strand buffer, 10 mM dithiothreitol, 27 U Rnasin RNase inhibitor (Promega, Madison, WI), and 800 U superscript reverse transcriptase (Invitrogen). A mixture containing total RNA, dNTPs, and random primers was heated to 65°C for 5 min to denature the RNA and then immediately placed on ice. The remaining components of the reaction mixture were then added to the RNA, and cDNA synthesis was performed at 42°C for 60 min. Reactions were terminated by heating to 70°C for 10 min.
PCR primers were selected from GenBank database sequences with Primer3 software ([Rozen and Skaletsky 2000]). […] Nonspecific mispriming was managed by a mispriming threshold of 10.0 in the rodent mispriming library.
Real-time PCR was performed with the SYBR Green PCR kit from Applied Biosystems (Foster City, CA) according to the manufacturer’s instructions. PCR reactions (25 μL) contained diluted cDNA, 1 × SYBR Green buffer, 3 mM MgCl2, 0.2 mM dNTP mix, 0.2 μM left and right primers, 10 nM fluorescein, and 1.1 U of Amplitaq Gold polymerase. The reaction was initiated by incubation at 95°C for 10 min and followed by 40 cycles of denaturation at 95°C for 15 sec and primer annealing/extension at 60°C for 1 min. Sample fluorescence was evaluated during the annealing/extension step. Upon completion of thermocycling, the specificity of each reaction was evaluated by melting analysis. Samples were heated to 95°C for 2 min and cooled to 55°C. The temperature was maintained at 55°C for 15 sec to analyze sample fluorescence, and the temperature was increased by increments of 0.5°C followed by 15 sec of fluorescence analysis for a total of 80 cycles.
The efficiency of each primer set was validated over a range of cDNA concentrations. […] After primer validation, PCR reactions were performed with a single cDNA concentration, and the threshold cycle (Ct) was determined for each reaction. The difference (ΔCt) between the threshold cycle for the target gene and endogenous control gene (18S RNA) was calculated for each sample, and the 18S normalized relative expression of each gene was calculated by the comparative method according to the Applied Biosystems’ User Bulletin No. 2 for the ABI Prism Sequence Detection System (Applied Biosystems), as described by [Imasato et al. (2002)].

[4] = tested on: hepatic gene expression; conditions: liver, 13 weeks; average (± 1 SD) of three GeneChips
[5] = tested on: liver; conditions: TCDD 100, PeCDF 200, PCB126 1,000 ng/kg/day, ref NTP 2004a, 2004b, 2004c; cited from earlier work
[6] = same doses, 1, minimal to 4, marked

Row | Structure (SMILES) | Liver levels [1] | Liver hypertrophy, incidence (number of rats of 10) [2] | Liver hypertrophy, severity in words [2] | Liver hypertrophy, mean severity score ([2]; same doses) | Diffuse fatty change, incidence (number of rats of 10) ([2]; same doses) | Multinucleated hepatocytes, incidence (number of rats of 10) ([2]; same doses) | Pigmentation, incidence (number of rats of 10) ([2]; same doses) | C-CAM4 mRNA, average change vs vehicle, RT-PCR [3] | CAP2 mRNA, average change vs vehicle, RT-PCR [3] | CES3 mRNA, average change vs vehicle, RT-PCR [3] | CYP1B1 mRNA, average change vs vehicle, RT-PCR [3] | CYP3A9 mRNA, average change vs vehicle, RT-PCR [3] | SERPIN7A mRNA, average change vs vehicle, RT-PCR [3] | SST mRNA, average change vs vehicle, RT-PCR [3] | C-CAM4 mRNA, average change vs vehicle, Microarray [4] | CAP2 mRNA, average change vs vehicle, Microarray [4] | CES3 mRNA, average change vs vehicle, Microarray [4] | CYP1B1 mRNA, average change vs vehicle, Microarray [4] | SERPIN7A mRNA, average change vs vehicle, Microarray [4] | SST mRNA, average change vs vehicle, Microarray [4] | other results
1 | Clc1ccc(-c2cc(Cl)c(Cl)c(Cl)c2)cc1Cl [PCB126, 3,3′,4,4′,5-pentachlorobiphenyl] | 412.6 ± 73.5 ng/g | 10 | minimal to mild | 1.7 | 0 | 0 | 0 | 3.5 (2.6 to 4.7) | 119.4 (104 to 137.2) | −1.4 (−1.5 to −1.3) | 106.4 (98.2 to 115.3) | −28.5 (−30.2 to −26.9) | −8.4 (−12 to −5.9) | −1.5 (−1.6 to −1.4) | 25.1 (4 to 46.2) | 7.6 (2 to 13.2) | −4 (−4.4 to −3.6) | 317.1 (41.1 to 593.1) | −4 (−4.9 to −3.1) | −6.4 (−9.4 to −3.4) | liver findings after 2 years of exposure [5]: cholangiocarcinoma, hepatocellular adenoma, toxic hepatopathy, multinucleated hepatocytes, diffuse fatty change, and liver pigmentation
2 | Clc1cc2c(cc1Cl)Oc1cc(Cl)c(Cl)cc1O2 [TCDD, 2,3,7,8-tetrachlorodibenzo-p-dioxin] | 18.3 ± 0.8 ng/g | 10 | mild to moderate | 2.3 | 2 | 3 | 0 | 4.1 (3.8 to 4.4) | 168.9 (147.9 to 192.9) | −4.8 (−5.2 to −4.4) | 256 (236.3 to 277.3) | −1024 (−1201.8 to −872.5) | −26.6 (−30.2 to −23.4) | −36.8 (−46.4 to −29.1) | 133.4 (112.1 to 154.7) | 53.6 (31.1 to 76.1) | −8.1 (−9.9 to −6.3) | 676.3 (470.8 to 881.8) | −11.5 (−17.2 to −5.8) | −8 (−10.5 to −5.5) | Diffuse fatty change, mean severity score [2, 6]: 1.0; Multinucleated hepatocytes, mean severity score [2, 6]: 1.0; CYP3A9 mRNA, average change vs vehicle, Microarray [4]: −35.4 (−53.4 to −17.4); liver findings after 2 years of exposure [5]: cholangiocarcinoma, hepatocellular adenoma, toxic hepatopathy, multinucleated hepatocytes, diffuse fatty change, and liver pigmentation
3 | Clc1cc(Cl)c(-c2cc(Cl)c(Cl)cc2Cl)cc1Cl [PCB153, 2,2′,4,4′,5,5′-hexachlorobiphenyl] | 9,250 ± 2,061 ng/g | 9 | minimal | 1.2 | 0 | 0 | 0 | −1.1 (−1.3 to 1) | −1.3 (−1.5 to −1.1) | 2.4 (2.1 to 2.6) | −1.2 (−1.6 to 1) | −1.8 (−2.1 to −1.5) | −1.2 (−1.5 to 1) | −3 (−3.5 to −2.5) | – | – | 1.3 (1 to 1.6) | 2.1 (1 to 3.2) | 1.6 (1.3 to 1.9) | −9.5 (−10.1 to −8.9) | CYP3A9 mRNA, average change vs vehicle, Microarray [4]: 1.6 (0.8 to 2.4)
4 | Clc1cc2oc3c(Cl)c(Cl)c(Cl)cc3c2cc1Cl [PeCDF, 2,3,4,7,8-pentachlorodibenzofuran] | 132.9 ± 47.4 ng/g | – | – | – | – | 0 | – | 2.5 (2.3 to 2.7) | 20.2 (17.8 to 22.9) | – | 59.7 (48.3 to 73.8) | −4.2 (−5 to −3.5) | −29.9 (−32 to −27.9) | −1.6 (−2 to −1.2) | 37.4 (25.5 to 49.3) | 10.9 (4 to 17.8) | −2.8 (−3.8 to −1.8) | 493.3 (310.1 to 676.5) | −2.7 (−3.6 to −1.8) | −8.3 (−11.1 to −5.5) | CYP3A9 mRNA, average change vs vehicle, Microarray [4]: −2.3 (−3.3 to −1.3)
